Blank lines part the entries; values can stand above or below the molecule they belong to.
Tested on: 966289-007-R4-J1-PDC complex spheroid viability
Test: Anticancer human tumor 966289-007-R4-J1-PDC patient-derived pancreatic adenocarcinoma cell line growth inhibition [GQUAD]
Details: for IC50: curve of first compound; for viability, T/C: stronger effect = lower value
Summary of the method: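 Tumor cells were grown as complex spheroids with HUVEC endothelial cells and mesenchymal stem cells as stroma. G-quadruplex stabilizers were combined with targeted agents over half-log dilutions from near the clinical Cmax, or from 10 microM.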

[1] = second compound 0.0316 µM, first compound 0.0316 µM
[2] = second compound 0.0316 µM, first compound 0.1 µM
[3] = second compound 0.0316 µM, first compound 0.316 µM
[4] = second compound 0.0316 µM, first compound 1 µM
[5] = second compound 0.0316 µM, first compound 3.16 µM
[6] = second compound 0.0316 µM, first compound 10 µM
[7] = second compound 0.1 µM, first compound 0.0316 µM
[8] = second compound 0.1 µM, first compound 0.1 µM
[9] = second compound 0.1 µM, first compound 0.316 µM
[10] = second compound 0.1 µM, first compound 1 µM
[11] = second compound 0.1 µM, first compound 3.16 µM
[12] = second compound 0.1 µM, first compound 10 µM
[13] = second compound 0.316 µM, first compound 0.0316 µM
[14] = second compound 0.316 µM, first compound 0.1 µM
[15] = second compound 0.316 µM, first compound 0.316 µM
[16] = second compound 0.316 µM, first compound 1 µM
[17] = second compound 0.316 µM, first compound 3.16 µM
[18] = second compound 0.316 µM, first compound 10 µM
[19] = second compound 1 µM, first compound 0.0316 µM
[20] = second compound 1 µM, first compound 0.1 µM
[21] = second compound 1 µM, first compound 0.316 µM
[22] = second compound 1 µM, first compound 1 µM
[23] = second compound 1 µM, first compound 3.16 µM
[24] = second compound 1 µM, first compound 10 µM
[25] = second compound 3.16 µM, first compound 0.0316 µM
[26] = second compound 3.16 µM, first compound 0.1 µM
[27] = second compound 3.16 µM, first compound 0.316 µM
[28] = second compound 3.16 µM, first compound 1 µM
[29] = second compound 3.16 µM, first compound 3.16 µM
[30] = second compound 3.16 µM, first compound 10 µM
[31] = second compound 10 µM, first compound 0.0316 µM
[32] = second compound 10 µM, first compound 0.1 µM
[33] = second compound 10 µM, first compound 0.316 µM
[34] = second compound 10 µM, first compound 1 µM
[35] = second compound 10 µM, first compound 3.16 µM
[36] = second compound 10 µM, first compound 10 µM
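Further: spheroids exposed to the agents for seven days before readout.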
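Wherever viability, T/C is given: percent viability relative to DMSO vehicle control wells taken as 100%.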

IC50 (second compound 0.0316 µM): < 31.6 nM
IC50 (second compound 0.1 µM): < 31.6 nM
IC50 (second compound 0.316 µM): < 31.6 nM
IC50 (second compound 1 µM): < 31.6 nM
IC50 (second compound 3.16 µM): < 31.6 nM
IC50 (second compound 10 µM): < 31.6 nM
Compound: CC1COCCN1c1cc(C2(O)CC3CCC(C2)O3)c2cnn(-c3ccn[nH]3)c2n1 (centres undefined) + Cc1cnc(CNC(=O)c2c(=O)c3ccc(N4CCCN(C)CC4)nc3n3c2sc2ccccc23)cn1
viability, T/C [1]: 17.9%
viability, T/C [2]: 6.32%
viability, T/C [3]: 6.87%
viability, T/C [4]: 4.01%
viability, T/C [5]: 4.28%
viability, T/C [6]: 3.82%
viability, T/C [7]: 8.59%
viability, T/C [8]: 4.79%
viability, T/C [9]: 5.61%
viability, T/C [10]: 4.59%
viability, T/C [11]: 3.77%
viability, T/C [12]: 3.82%
viability, T/C [13]: 6.96%
viability, T/C [14]: 6.64%
viability, T/C [15]: 7.05%
viability, T/C [16]: 5.35%
viability, T/C [17]: 4.24%
viability, T/C [18]: 3.79%
viability, T/C [19]: 5.69%
viability, T/C [20]: 6.03%
viability, T/C [21]: 7.24%
viability, T/C [22]: 5.15%
viability, T/C [23]: 5.42%
viability, T/C [24]: 4.18%
viability, T/C [25]: 4.9%
viability, T/C [26]: 5.03%
viability, T/C [27]: 5.23%
viability, T/C [28]: 5.64%
viability, T/C [29]: 5.02%
viability, T/C [30]: 3.38%
viability, T/C [31]: 0.04%
viability, T/C [32]: 0.08%
viability, T/C [33]: 0.11%
viability, T/C [34]: 0.07%
viability, T/C [35]: 0.15%
viability, T/C [36]: 0.14%

IC50 (second compound 0.0316 µM): 826 nM
IC50 (second compound 0.1 µM): < 31.6 nM
IC50 (second compound 0.316 µM): < 31.6 nM
IC50 (second compound 1 µM): < 31.6 nM
IC50 (second compound 3.16 µM): < 31.6 nM
IC50 (second compound 10 µM): < 31.6 nM
Compound: COc1ccc([C@@H](O)c2cc(-c3ncnc4cc(N5CCOCC5)ccc34)c(F)cc2Cl)nn1 + Cc1cnc(CNC(=O)c2c(=O)c3ccc(N4CCCN(C)CC4)nc3n3c2sc2ccccc23)cn1
viability, T/C [1]: 119%
viability, T/C [2]: 109%
viability, T/C [3]: 107%
viability, T/C [4]: 38.6%
viability, T/C [5]: 36%
viability, T/C [6]: 26%
viability, T/C [7]: 47.7%
viability, T/C [8]: 37.2%
viability, T/C [9]: 21.7%
viability, T/C [10]: 11.2%
viability, T/C [11]: 12.2%
viability, T/C [12]: 13.2%
viability, T/C [13]: 14.1%
viability, T/C [14]: 15%
viability, T/C [15]: 10.7%
viability, T/C [16]: 9.67%
viability, T/C [17]: 12.2%
viability, T/C [18]: 10.4%
viability, T/C [19]: 7.16%
viability, T/C [20]: 7.76%
viability, T/C [21]: 6.22%
viability, T/C [22]: 5.28%
viability, T/C [23]: 7.22%
viability, T/C [24]: 6.81%
viability, T/C [25]: 5.73%
viability, T/C [26]: 5.42%
viability, T/C [27]: 4.82%
viability, T/C [28]: 4.3%
viability, T/C [29]: 6.69%
viability, T/C [30]: 6.78%
viability, T/C [31]: 0.11%
viability, T/C [32]: 0.13%
viability, T/C [33]: 0.3%
viability, T/C [34]: 0.15%
viability, T/C [35]: 0.42%
viability, T/C [36]: 0.15%
